Measurements as given in patent US11731943B2, “Therapeutic compounds, compositions and methods of use thereof” (priority 2016, dated 2023).
Where two headings read alike, the source gives them in different places.

Key:
[1] = target: isolated recombinant JAK2 kinase domain (Homo sapiens (Human), UniProt O60674); assay: JAK2 enzyme assay (Caliper LabChip, Ki); assay type: biochemical
In short: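 Caliper LabChip readout of phosphorylated product as a fraction of total substrate, a fluorescently N-terminally labelled JAK3-derived peptide. Isolated human JAK kinase domains were incubated 30 min at 22 °C before EDTA quench (50 mM final).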

[2] = target: isolated recombinant JAK1 kinase domain (Homo sapiens (Human), UniProt P23458); assay: JAK1 enzyme assay (Caliper LabChip, Ki); assay type: biochemical; settings: read-out: JAK1 Ki
In short: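 Ki derived via Morrison tight-binding model, ATP-competitive correction applied. Read-out: product/total ratio of a 5-carboxyfluorescein-tagged JAK3 peptide separated on Caliper LabChip after phosphorylation by isolated human JAK1 kinase domain (22 °C, 30 min; EDTA quench, 50 mM final).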

[3] = system: JAK1-dependent STAT6 phosphorylation downstream of IL-13 stimulation in BEAS-2B human bronchial epithelial cells; assay: JAK1 pathway assay in BEAS-2B cells (IL-13-pSTAT6, MSD); assay type: cell-based; settings: BEAS-2B cells, IL-13 stimulation, read-out: IL-13 p-STAT6 BEAS-2B IC50
Description: JAK1 Pathway Assay in Cell Lines was carried out as follows:
Inhibitor potency (EC50) was determined in cell-based assays designed to measure JAK1 dependent STAT phosphorylation.
In one assay approach, TF-1 human erythroleukemia cells obtained from the American Type Culture Collection (ATCC; Manassas, Va.) were used to measure JAK1-dependent STAT6 phosphorylation downstream of IL-13 stimulation. Prior to use in the assays, TF-1 cells were starved of GM-CSF overnight in OptiMEM medium (Life Technologies, Grand Island, N.Y.) supplemented with 0.5% charcoal/dextran stripped fetal bovine serum (FBS), 0.1 mM non-essential amino acids (NEAA), and 1 mM sodium pyruvate. The assays were run in 384-well plates in serum-free OptiMEM medium using 300,000 cells per well. In a second assay approach, BEAS-2B human bronchial epithelial cells obtained from ATCC were plated at 100,000 cells per well of a 96-well plate one day prior to the experiment. The BEAS-2B assay was run in complete growth medium (bronchial epithelial basal medium plus bulletkit; Lonza; Basel, Switzerland).
Test compounds were serially diluted 1:2 in DMSO and then diluted 1:50 in medium just before use. Diluted compounds were added to the cells, for a final DMSO concentration of 0.2%, and incubated for 30 min (for the TF-1 assay) or 1 hr (for the BEAS-2B assay) at 37° C. Then, cells were stimulated with human recombinant cytokine at their respective EC90 concentrations, as previously determined for each individual lot. Cells were stimulated with IL-13 (R&D Systems, Minneapolis, Minn.) for 15 min at 37° C. The TF-1 cell reactions were stopped by the direct addition of 10× lysis buffer (Cell Signaling Technologies, Danvers, Mass.), whereas the BEAS-2B cell incubations were halted by the removal of medium and addition of 1× lysis buffer. The resultant samples were frozen in the plates at −80° C. Compound mediated inhibition of STATE phosphorylation was measured in the cell lysates using MesoScale Discovery (MSD) technology (Gaithersburg, Md.).

isolated recombinant JAK1 kinase domain, sequence (P23458 875-1153): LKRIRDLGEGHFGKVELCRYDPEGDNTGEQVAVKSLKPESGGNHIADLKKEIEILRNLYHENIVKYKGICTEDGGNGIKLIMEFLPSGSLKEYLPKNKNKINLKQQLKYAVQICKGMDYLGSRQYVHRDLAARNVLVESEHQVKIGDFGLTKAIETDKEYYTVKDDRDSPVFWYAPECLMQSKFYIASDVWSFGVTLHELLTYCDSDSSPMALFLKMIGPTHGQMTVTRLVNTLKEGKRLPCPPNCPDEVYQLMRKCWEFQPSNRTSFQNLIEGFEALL
isolated recombinant JAK2 kinase domain, sequence (O60674 849-1124): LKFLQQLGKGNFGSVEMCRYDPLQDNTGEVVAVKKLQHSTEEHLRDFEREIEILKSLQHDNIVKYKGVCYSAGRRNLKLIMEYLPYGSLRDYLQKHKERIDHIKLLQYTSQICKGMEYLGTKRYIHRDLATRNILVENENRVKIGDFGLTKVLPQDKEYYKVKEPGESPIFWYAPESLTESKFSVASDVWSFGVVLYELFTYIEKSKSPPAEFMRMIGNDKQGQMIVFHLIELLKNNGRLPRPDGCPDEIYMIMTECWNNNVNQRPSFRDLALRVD

Row | Structure (SMILES) | Ki [1] | Ki [2] | IC50 ([3]; Homo sapiens, BEAS-2B) | IC50 [3]
1 | N#CC[C@@]1(n2cc(C(N)=O)c(NC(=O)C3CC3)n2)CCN(Cc2ccc(-c3ccccc3)cc2)C[C@H]1F (single isomer, unassigned) [Example 15] | 30.7 nM | 4.2 nM | 282 nM | 
2 | N#CCC1(n2cc(C(N)=O)c(NC(=O)C3CC3)n2)CCN(Cc2cc(O)c(-c3ccccc3)cc2F)CC1F (stereo not drawn) [Example 207, 1-[4-(cyanomethyl)-3-fluoro-1-[(2-fluoro-5-hydroxy-4-phenyl-phenyl)methyl]-4-piperidyl]-3-(cyclopropanecarbonylamino) pyrazole-4-carboxamide] | 0.13 nM | 0.11 nM | 29 nM | 
3 | N#CCC1(n2cc(C(N)=O)c(NC(=O)C3CC3)n2)CCN(Cc2cccc(F)c2)CC1 [Example 56] | 24.3 nM | 2.4 nM | 363 nM | 
4 | C=C(C)c1cc(F)c(CN2CCC(CC#N)(n3cc(C(N)=O)c(NC(=O)OC)n3)C(F)C2)cc1O (stereo not drawn) [Example 274, methyl N-[4-carbamoyl-1-[4-(cyanomethyl)-3-fluoro-1-[(2-fluoro-5-hydroxy-4-isopropenyl-phenyl)methyl]-4-piperidyl]pyrazol-3-yl]carbamate] | 0.61 nM | 0.58 nM | 38 nM | 
5 | COC(=O)Nc1nn(C2(CC#N)CCN(Cc3cc(C(F)F)ccc3F)CC2F)cc1C(N)=O (stereo not drawn) [Example 283, methyl N-[4-carbamoyl-1-[4-(cyanomethyl)-1-[[5-(difluoromethyl)-2-fluoro-phenyl]methyl]-3-fluoro-4-piperidyl]pyrazol-3-yl]carbamate] | 2.9 nM | 1.4 nM | 77 nM | 
6 | N#CCC1(n2cc(C(N)=O)c(NC(=O)C3CC3)n2)CCN(Cc2ccc(-c3ccco3)cc2)CC1F (stereo not drawn) [Example 215, 1-[4-(cyanomethyl)-3-fluoro-1-[[4-(2-furyl)phenyl]methyl]-4-piperidyl]-3-(cyclopropanecarbonylamino) pyrazole-4-carboxamide] | 0.25 nM | 0.24 nM | 12 nM | 
7 | CCc1ccc(-c2ccc(CN3CCC(CC#N)(n4cc(C(N)=O)c(NC(=O)C5CC5)n4)CC3)cc2O)cc1 [Example 189, 1-[4-(cyanomethyl)-1-[[4-(4-ethylphenyl)-3-hydroxy-phenyl]methyl]-4-piperidyl]-3-(cyclopropanecarbonylamino) pyrazole-4-carboxamide] | 1.3 nM | 0.33 nM | 38 nM | 
8 | N#CC[C@]1(n2cc(C(N)=O)c(NC(=O)C3CC3)n2)CCN(Cc2ccccc2)C[C@@H]1F [Example 164, 1-[1-benzyl-4-(cyanomethyl)-3-fluoro-4-piperidyl]-3-(cyclopropanecarbonylamino) pyrazole-4-carboxamide] | 9 nM | 2.7 nM | 275 nM | 
9 | COC(=O)Nc1nn(C2(CC#N)CCN(Cc3cc(O)c(Br)cc3Cl)CC2F)cc1C(N)=O (stereo not drawn) [Example 296, methyl N-[1-[1-[(4-bromo-2-chloro-5-hydroxy-phenyl)methyl]-4-(cyanomethyl)-3-fluoro-4-piperidyl]-4-carbamoyl-pyrazol-3-yl]carbamate] | 0.59 nM | 0.56 nM | 52 nM | 
10 | N#CCC1(n2cc(C(N)=O)c(NC(=O)C3CC3)n2)CCC(N2CC(F)(c3ccccc3)C2)CC1 (stereo not drawn) [Example 205, 1-[1-(cyanomethyl)-4-(3-fluoro-3-phenyl-azetidin-1-yl)cyclohexyl]-3-(cyclopropanecarbonylamino) pyrazole-4-carboxamide] | 5.9 nM | 0.89 nM | 82 nM | 
11 | COC(=O)Nc1nn(C2(CC#N)CCN(Cc3ccc(-n4nccn4)cc3)CC2)cc1C(N)=O [Example 197, methyl N-[4-carbamoyl-1-[4-(cyanomethyl)-1-[[4-(triazol-2-yl)phenyl]methyl]-4-piperidyl]pyrazol-3-yl]carbamate] | 22 nM | 1.2 nM | 65 nM | 
12 | N#CCC1(n2cc(C(N)=O)c(NC(=O)C3CC3)n2)CCC(Nc2ccc(-n3nccn3)cc2)CC1 (stereo not drawn) [Example 288, 1-[1-(cyanomethyl)-4-[4-(triazol-2-yl)anilino]cyclohexyl]-3-(cyclopropanecarbonylamino) pyrazole-4-carboxamide] | 4.4 nM | 0.28 nM | 41 nM | 
13 | N#CCC1(n2cc(C(N)=O)c(NC(=O)C3CC3)n2)CCN(Cc2ccc(-c3ccccc3)c(C#N)c2)CC1 [Example 161, 1-[4-(cyanomethyl)-1-[(3-cyano-4-phenyl-phenyl)methyl]-4-piperidyl]-3-(cyclopropanecarbonylamino) pyrazole-4-carboxamide] | 35.3 nM | 5.5 nM | 1010 nM | 
14 | COC(=O)Nc1nn(C2(CC#N)CCN(Cc3ccc(C4=CCCC4)nc3F)CC2F)cc1C(N)=O (stereo not drawn) [Example 272, methyl N-[4-carbamoyl-1-[4-(cyanomethyl)-1-[[6-(cyclopenten-1-yl)-2-fluoro-3-pyridyl]methyl]-3-fluoro-4-piperidyl]pyrazol-3-yl]carbamate] | 1.6 nM | 0.68 nM | 67 nM | 
15 | N#CCC1(n2cc(C(N)=O)c(NC(=O)C3CC3)n2)CCN(Cc2ccc(-c3csc(Cl)c3)nc2)CC1 [Example 16, 1-(1-((6-(5-Chlorothiophen-3-yl)pyridin-3-yl)methyl)-4-(cyanomethyl)piperidin-4-yl)-3-(cyclopropanecarboxamido)-1H-pyrazole-4-carboxamide] | 2.4 nM | 0.5 nM | 85 nM | 
16 | COC(=O)Nc1nn(C2(CC#N)CCN(Cc3cc(O)c(-c4ccoc4)cc3F)CC2F)cc1C(N)=O (stereo not drawn) [Example 237, methyl N-[4-carbamoyl-1-[4-(cyanomethyl)-3-fluoro-1-[[2-fluoro-4-(3-furyl)-5-hydroxy-phenyl]methyl]-4-piperidyl]pyrazol-3-yl]carbamate] | 0.3 nM | 0.22 nM | 27 nM | 
17 | N#CCC1(n2cc(C(N)=O)c(NC(=O)C3CC3C#N)n2)CCN(CC2CCC(c3ccccc3)CC2)CC1F (stereo not drawn) [Example 231, 3-[(2-cyanocyclopropanecarbonyl)amino]-1-[4-(cyanomethyl)-3-fluoro-1-[(4-phenylcyclohexyl)methyl]-4-piperidyl]pyrazole-4-carboxamide] | 8.3 nM | 0.36 nM |  | 19 nM
18 | N#CCC1(n2cc(C(N)=O)c(NC(=O)C3CC3)n2)CCN(Cc2ccc(-c3csc(Cl)c3)cc2)CC1 [Example 149, 1-[1-[[4-(5-chloro-3-thienyl)phenyl]methyl]-4-(cyanomethyl)-4-piperidyl]-3-(cyclopropanecarbonylamino) pyrazole-4-carboxamide] | 4.7 nM | 0.7 nM | 41 nM | 
19 | Cc1c(CN2CCC(CC#N)(n3cc(C(N)=O)c(NC(=O)C4CC4)n3)C(F)C2)ccc(-c2ccccc2)c1O (stereo not drawn) [Example 213, 1-[4-(cyanomethyl)-3-fluoro-1-[(3-hydroxy-2-methyl-4-phenyl-phenyl)methyl]-4-piperidyl]-3-(cyclopropanecarbonylamino) pyrazole-4-carboxamide] | 0.28 nM | 0.37 nM | 22 nM | 
20 | CC(=O)Nc1cccc(CN2CCC(CC#N)(n3cc(C(N)=O)c(NC(=O)C4CC4)n3)CC2)c1 [Example 76] | 36.9 nM | 3.9 nM | > 1000 nM | 
21 | COc1cc(CN2CCC(CC#N)(n3cc(C(N)=O)c(NC(=O)C4CC4)n3)CC2)ccc1-c1ccccc1 [Example 162, 1-[4-(cyanomethyl)-1-[(3-methoxy-4-phenyl-phenyl)methyl]-4-piperidyl]-3-(cyclopropanecarbonylamino) pyrazole-4-carboxamide] | 10.6 nM | 3.1 nM | 293 nM | 
22 | COC(=O)Nc1nn(C2(CC#N)CCN(Cc3ccc(-c4ccc(C)o4)cc3)CC2F)cc1C(N)=O (stereo not drawn) [Example 246, methyl N-[4-carbamoyl-1-[4-(cyanomethyl)-3-fluoro-1-[[4-(5-methyl-2-furyl)phenyl]methyl]-4-piperidyl]pyrazol-3-yl]carbamate] | 0.52 nM | 0.35 nM | 19 nM | 
23 | N#CC[C@]1(n2cc(C(N)=O)c(NC(=O)C3CC3)n2)CCN(Cc2ccc(-c3ccccc3)cc2)C[C@H]1F (single isomer, unassigned) [Example 14] | 0.4 nM | 0.2 nM | 16 nM | 
